Measurements from PubChem BioAssay (NCI).
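Values below derive from 48-hour exposures of cells grown in 96-well plates, with endpoints linearly interpolated between the two concentrations bracketing the appropriate inhibition level. At the GI50, growth is halved. TGI marks complete inhibition of growth.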

Assays:
Assay in all cases: NCI-60 cell line screen, 48 h
SF-295 CNS = tested on: SF-295 CNS
MOLT-4 leukemia = tested on: MOLT-4 leukemia
CAKI-1 renal = tested on: CAKI-1 renal
SNB-75 CNS = tested on: SNB-75 CNS
HCT-15 colon = tested on: HCT-15 colon
OVCAR-3 ovarian = tested on: OVCAR-3 ovarian
COLO 205 colon = tested on: COLO 205 colon
HOP-92 NSCLC = tested on: HOP-92 NSCLC
NCI-H23 lung = tested on: NCI-H23 lung
SNB-19 CNS = tested on: SNB-19 CNS
TK-10 renal = tested on: TK-10 renal
U251 CNS = tested on: U251 CNS
SR leukemia = tested on: SR leukemia
DU-145 prostate = tested on: DU-145 prostate
MALME-3M melanoma = tested on: MALME-3M melanoma
OVCAR-8 ovarian = tested on: OVCAR-8 ovarian
T-47D breast = tested on: T-47D breast
BT-549 breast = tested on: BT-549 breast
786-0 renal = tested on: 786-0 renal
NCI/ADR-RES ovarian = tested on: NCI/ADR-RES ovarian
ACHN renal = tested on: ACHN renal
NCI-H460 lung = tested on: NCI-H460 lung
SK-OV-3 ovarian = tested on: SK-OV-3 ovarian
M14 melanoma = tested on: M14 melanoma
OVCAR-5 ovarian = tested on: OVCAR-5 ovarian
HOP-62 NSCLC = tested on: HOP-62 NSCLC
A498 renal = tested on: A498 renal
A549 NSCLC = tested on: A549 NSCLC
MDA-MB-231 breast = tested on: MDA-MB-231 breast
HCT-116 colon = tested on: HCT-116 colon
LOX IMVI melanoma = tested on: LOX IMVI melanoma
RXF 393 renal = tested on: RXF 393 renal
PC-3 prostate = tested on: PC-3 prostate
KM12 colon = tested on: KM12 colon
SW-620 colon = tested on: SW-620 colon
SF-539 CNS = tested on: SF-539 CNS
SN12C renal = tested on: SN12C renal
MDA-MB-435 = tested on: MDA-MB-435
SK-MEL-2 melanoma = tested on: SK-MEL-2 melanoma
EKVX NSCLC = tested on: EKVX NSCLC
CCRF-CEM leukemia = tested on: CCRF-CEM leukemia
HL-60(TB) leukemia = tested on: HL-60(TB) leukemia
NCI-H226 lung = tested on: NCI-H226 lung
SF-268 CNS = tested on: SF-268 CNS
UO-31 renal = tested on: UO-31 renal
OVCAR-4 ovarian = tested on: OVCAR-4 ovarian
UACC-257 melanoma = tested on: UACC-257 melanoma
K-562 leukemia = tested on: K-562 leukemia
UACC-62 melanoma = tested on: UACC-62 melanoma
HT29 colon = tested on: HT29 colon
SK-MEL-5 melanoma = tested on: SK-MEL-5 melanoma
IGROV1 ovarian = tested on: IGROV1 ovarian

O=C(Oc1ccccc1)N(c1ccccc1)c1ccccc1
GI50 (SF-295 CNS): 18.8 µM | TGI (SF-295 CNS): 58.7 µM | GI50 (MOLT-4 leukemia): 28.3 µM | TGI (MOLT-4 leukemia): > 100 µM | GI50 (CAKI-1 renal): 12.1 µM | TGI (CAKI-1 renal): 37.6 µM | GI50 (SNB-75 CNS): 19.6 µM | TGI (SNB-75 CNS): 52.5 µM | GI50 (HCT-15 colon): 31.1 µM | TGI (HCT-15 colon): > 100 µM | GI50 (OVCAR-3 ovarian): 23.7 µM | TGI (OVCAR-3 ovarian): > 100 µM | GI50 (COLO 205 colon): 19.5 µM | TGI (COLO 205 colon): 44.7 µM | GI50 (HOP-92 NSCLC): 19 µM | TGI (HOP-92 NSCLC): 66.9 µM | GI50 (NCI-H23 lung): 21.9 µM | TGI (NCI-H23 lung): 84.7 µM | GI50 (SNB-19 CNS): 40.7 µM | TGI (SNB-19 CNS): > 100 µM | GI50 (TK-10 renal): 37.1 µM | TGI (TK-10 renal): > 100 µM | GI50 (U251 CNS): 31.1 µM | TGI (U251 CNS): > 100 µM | GI50 (SR leukemia): 29 µM | TGI (SR leukemia): > 100 µM | GI50 (DU-145 prostate): 42.9 µM | TGI (DU-145 prostate): > 100 µM | GI50 (MALME-3M melanoma): 25 µM | TGI (MALME-3M melanoma): 91.4 µM | GI50 (OVCAR-8 ovarian): 31.8 µM | TGI (OVCAR-8 ovarian): > 100 µM | GI50 (T-47D breast): 24.9 µM | TGI (T-47D breast): > 100 µM | GI50 (BT-549 breast): 18.2 µM | TGI (BT-549 breast): 41.2 µM | GI50 (786-0 renal): 26.2 µM | TGI (786-0 renal): 83.4 µM | GI50 (NCI/ADR-RES ovarian): 21.8 µM | TGI (NCI/ADR-RES ovarian): 72.2 µM | GI50 (ACHN renal): 28.8 µM | TGI (ACHN renal): > 100 µM | GI50 (NCI-H460 lung): 26.4 µM | TGI (NCI-H460 lung): 89.2 µM | GI50 (SK-OV-3 ovarian): 47.3 µM | TGI (SK-OV-3 ovarian): > 100 µM | GI50 (M14 melanoma): 24.7 µM | TGI (M14 melanoma): 65.2 µM | GI50 (OVCAR-5 ovarian): 45.9 µM | TGI (OVCAR-5 ovarian): > 100 µM | GI50 (HOP-62 NSCLC): 32.2 µM | TGI (HOP-62 NSCLC): > 100 µM | GI50 (A498 renal): 10.4 µM | TGI (A498 renal): 62.7 µM | GI50 (A549 NSCLC): 26.2 µM | TGI (A549 NSCLC): > 100 µM | GI50 (MDA-MB-231 breast): 28 µM | TGI (MDA-MB-231 breast): > 100 µM | GI50 (HCT-116 colon): 18.6 µM | TGI (HCT-116 colon): 76.8 µM | GI50 (LOX IMVI melanoma): 19.9 µM | TGI (LOX IMVI melanoma): 78.6 µM | GI50 (RXF 393 renal): 25.8 µM | TGI (RXF 393 renal): 92.6 µM | GI50 (PC-3 prostate): 35.1 µM | TGI (PC-3 prostate): > 100 µM | GI50 (KM12 colon): 28.7 µM | TGI (KM12 colon): > 100 µM | GI50 (SW-620 colon): 38.8 µM | TGI (SW-620 colon): > 100 µM | GI50 (SF-539 CNS): 30.4 µM | TGI (SF-539 CNS): > 100 µM | GI50 (SN12C renal): 27.7 µM | TGI (SN12C renal): > 100 µM | GI50 (MDA-MB-435): 24.4 µM | TGI (MDA-MB-435): 75.9 µM | GI50 (SK-MEL-2 melanoma): 30.6 µM | TGI (SK-MEL-2 melanoma): > 100 µM | GI50 (EKVX NSCLC): 18.7 µM | TGI (EKVX NSCLC): > 100 µM | GI50 (CCRF-CEM leukemia): 37 µM | TGI (CCRF-CEM leukemia): > 100 µM | GI50 (HL-60(TB) leukemia): 28.2 µM | TGI (HL-60(TB) leukemia): 71.4 µM | GI50 (NCI-H226 lung): 33.7 µM | TGI (NCI-H226 lung): > 100 µM | GI50 (SF-268 CNS): 33.1 µM | TGI (SF-268 CNS): > 100 µM | GI50 (UO-31 renal): 15 µM | TGI (UO-31 renal): > 100 µM | GI50 (OVCAR-4 ovarian): 25.1 µM | TGI (OVCAR-4 ovarian): > 100 µM | GI50 (UACC-257 melanoma): 26.4 µM | TGI (UACC-257 melanoma): 83 µM | GI50 (K-562 leukemia): 25.8 µM | TGI (K-562 leukemia): > 100 µM | GI50 (UACC-62 melanoma): 22.3 µM | TGI (UACC-62 melanoma): > 100 µM | GI50 (HT29 colon): 36.9 µM | TGI (HT29 colon): > 100 µM | GI50 (SK-MEL-5 melanoma): 15 µM | TGI (SK-MEL-5 melanoma): 29.9 µM | GI50 (IGROV1 ovarian): 38.1 µM | TGI (IGROV1 ovarian): > 100 µM
